The values below come from PMC10759609, “A novel PDPN antagonist peptide CY12-RP2 inhibits melanoma growth via Wnt/β-catenin and modulates the immune cells” (Journal of Experimental & Clinical Cancer Research : CR, 2024).

In data set [1] the test system is cytokines in mouse plasma. The data set is described as follows: Plasma cytokines in lung metastasis model (ELISA). It is filed as in vivo, BALB/c mice. The following applies: lung metastases model, vs control. As to the method: The levels of major inflammatory cytokines, including TNF-α, IL-1β, IL-2, TGF-β, IFN-γ, and IL-10, were measured using an ELISA kit (Shenzhen Ziker Biological Technology, Shenzen, China). Briefly, culture supernatants of cells and serum of pulmonary metastasis mouse model were respectively collected and added to an antibody pre-coated 96-well plates, and then followed up according to the manufacturer's instructions.
For pulmonary metastasis assays, 6- to 8-week-old female BALB/c mice were administered with 5 × 10^5 B16F10-Luc cells via tail vein to establish an experimental pulmonary metastasis model of melanoma. CY12-RP2 was administered to the mice intravenously at high and low doses (25 mg/kg and 100 mg/kg) every two days, and the mice were sacrificed after 15 days of treatment. Pulmonary metastases were evaluated using bioluminescence imaging on the 2nd, 5th, 10th, 15th and 20th day after B16F10-Luc cells injection. Subsequently, the BALB/c mice were sacrificed, and the organs including the heart, liver, spleen, lung, and kidney were collected and imaged for evaluation of micrometastases. The xenografts and organs were kept in a 4% paraformaldehyde solution for subsequent histological assays.

Another data set concerns A375 cells. The data set is described as follows: Colony formation, A375. It is filed as cell-based.
The test system of data set [2] is A375 xenograft tumor cells. Nature of the data set: TUNEL immunofluorescence of xenograft tumors. It is filed as in vivo, BALB/c nude mice. As to the method: Fig. S4: The inhibition of cells metastasis and invasion by CY12-RP2 can be […]
(A, B) The inhibition of CY12-RP2 on the migration capacity of melanoma cell lines was reversed by SKL2001 (A). Statistical analysis was performed to determine the migrated distance (B). The power field scale bar, 100 μm. (C, D) Effect of CY12-RP2 on the invasive ability of melanoma cell lines were reversed by SKL2001 (C).
Statistical analysis was performed to count the invaded cells (D). The power field scale bar, 100 μm. (E) Western blot assay was also performed to detect the proteins related to EMT and Wnt/β-catenin signaling pathway, including N-cadherin, Vimentin, snail, Dvl2, Phospho-β-catenin-S675, β-catenin, Phospho-GSK3β-Ser9 and GSK3β by CY12-RP2 with or without SKL2001 (50 μM). Data are presented as mean ± SD. *p < […]
Fig. S5: Effects and toxicity of CY12-RP2 in vivo
(A) TUNEL analysis of apoptosis was conducted on orthotopic xenografts tumor sections using fluorescence staining. The power field scale bar, 100 μm. (B) Fluorescence staining of Ki67 was carried out on orthotopic xenograft tumor sections.
The power field scale bar, 100 μm. (C) Serum His-CY12-RP2 levels of the orthotopic xenografts mice treated by various dosage of CY12-RP2 were measured by His-ELISA kit. […]
kit. (E) Serum ALT, AST, TG, and γ-GT levels of the orthotopic xenografts model were measured by ELISA. […]

Data set [3] has as its system liver, heart, spleen, lung and kidney. The following applies: mouse, in vivo. As for the experimental part:
For histopathological analysis, after BALB/c nude mice were sacrificed, organs (heart, liver, spleen, lung, and kidney) were collected and fixed in 4% paraformaldehyde for 24 h at RT. The fixed organs were then dehydrated and inserted in paraffin, and prepared in 2 µm sections. The prepared sections and experimental procedures were routinely carried out by Servicebio company.

The test system of data set [4] is immune cells in lungs and spleens. The data set is described as follows: Immunofluorescence of immune cell infiltration, spleen and lung, lung metastasis model. It is filed as in vivo, BALB/c mice. As to the method: (§1) Immunofluorescence analysis was used for antigen localization and quantification. For PDPN immunofluorescence staining, melanoma cells (A375, A875) were seeded in coverslips, cultured for 24 h, and fixed using 4% paraformaldehyde for 15 min at room temperature (RT). The cells were then permeabilized with 0.2% Triton X-100 in PBS for 10 min. Cells were blocked using 1% bovine serum albumin (BSA) in PBS for 30 min at RT, and incubated with the primary antibody overnight at 4 ℃. Afterwards, cells were washed three times with PBS containing 0.01% Triton X-100 for 5 min, and incubated with Alexa Fluor 568–conjugated secondary antibodies at RT for 1 h. Lastly, the nuclei were dyed with 4’,6-diamidino-2-phenylindole (DAPI) for 5 min at RT, and the slides were imaged using a NIKON laser scanning confocal microscope. To further verify the specificity binding ability of CY12-RP2 with PDPN, immunofluorescence was detected for analysis in melanoma cells. Briefly, A375 or A875 cells were incubated with CY12-RP2 at a concentration of 5 μM for 10 h at 37 ℃, and then washed with DMEM to remove the unbound peptide. The anti-PDPN primary antibody was then incubated for 4 h at RT. Further experimental procedures were performed as described above. To determine the immune cell infiltration and proportion changes in the lungs and spleens in the pulmonary metastasis mouse model, sequential frozen slices (12 μm) were prepared and incubated with CD3, CD4, CD8, Foxp3, CD56, F4/80, and CD11c primary antibodies for 1 h, and then incubated with Alexa Fluor 488-conjugated goat anti-mouse F(ab’)2 and Alexa Fluor 647-conjugated goat anti-mouse F(ab’)2 in PBS containing 1% BSA and 1% goat serum for 30 min. All incubations were conducted under coverslips at RT, and then repeatedly washed 3 times with PBS. Coverslips were mounted after staining cell nuclei with DAPI, and imaged using a NIKON laser scanning confocal microscope.

For the next data set, the system named is PDPN in A875 cells. Nature of the data set: Immunofluorescence binding/co-localization with PDPN, A875. It is filed as cell-based. Particulars: 5 μM, 10 h, 37 ℃. As for the experimental part: as §1, with “To determine the immune cell infiltration and proportion changes in the lungs and spleens in the pulmonary metastasis mouse model, sequential frozen slices (12 μm) were prepared and incubated with CD3, CD4, CD8, Foxp3, CD56, F4/80, and CD11c primary antibodies for 1 h, and then incubated with Alexa Fluor 488-conjugated goat anti-mouse F(ab’)2 and Alexa Fluor 647-conjugated goat anti-mouse F(ab’)2 in PBS containing 1% BSA and 1% goat serum for 30 min. All incubations were conducted under coverslips at RT, and then repeatedly washed 3 times with PBS. Coverslips were mounted after staining cell nuclei with DAPI, and imaged using a NIKON laser scanning confocal microscope.” left out

Data set [5] deals with EMT and apoptosis signaling in A375 cells. Nature of the data set: Western blot, EMT and apoptosis proteins, A375. It is filed as cell-based. The following applies: 0, 5, 25 μM, 48 h. As to the method: Melanoma cells were cultured in a 60 mm dish with a complete medium and various peptide concentrations (0 μM, 5 μM, 25 μM). Protein was extracted after cells were cultured or treated for 48 h using protein lysis buffer, separated using a 10% or 15% Bis–Tris PAGE gel (Epizyme Biomedical Technology, Shanghai, China), and transferred onto a PVDF membrane (Thermo Fisher Scientific) according to standard techniques. The Western blots were imaged using Bio-rad Chemidoc MP and quantified using ImageJ software (NIH).

Peptide text beside a SMILES is read from it.

As to `CC(C)C[C@H](NC(=O)[C@H](Cc1ccc(O)cc1)NC(=O)[C@@H](N)[C@@H](C)O)C(=O)N[C@@H](CS)C(=O)N[C@H](C(=O)N[C@@H](C)C(=O)N[C@@H](CS)C(=O)N[C@@H](CC(=O)O)C(=O)N[C@@H](Cc1ccc(O)cc1)C(=O)N[C@H](C(=O)N[C@@H](Cc1c[nH]cn1)C(=O)N[C@@H](Cc1c[nH]cn1)C(=O)O)[C@@H](C)O)[C@@H](C)O` [CY12-RP2] (H-TYLCTACDYTHH-OH; N-terminus and C-terminus assumed), in data set [1], the “plasma IFN-γ” value was “significantly elevated”, the “plasma IL-1β” value is listed as “significantly elevated”, the “plasma IL-2” value is on record as “reduced” and the “plasma IL-10” value is recorded as “reduced”. For the same compound, in data set [1], the “plasma TGF-β” value is “reduced” and the “plasma TNF-α” value is “significantly elevated”. In the data set on A375 cells, the colony formation result is on record as “significantly suppress the colony formation of A375 cells in a dose-dependent manner”. Besides, in data set [2], the “apoptotic tumor cells (TUNEL)” value is “more apoptotic tumor cells were detected”. Besides, in data set [3], the “toxic effect on organs (overall)” value is given as “slightly toxic effect”. In data set [4] (immunofluorescence), the M2-type macrophages result is on record as “decreased proportion”; the “NK cells and M1-type macrophages” value was “increased proportions”. Also, in data set [4] (multiplex immunofluorescence), the “infiltration of CD3 + CD4 + T cells and CD3 + CD8 + T cells” value is “remarkable increase”; the “infiltration of Treg cells” value is “reduction”. For the same compound, the “fluorescence and co-localization with PDPN” value in the data set on PDPN in A875 cells is listed as “minimal fluorescence”. Moreover, in data set [5], the “expression of E-cadherin, Caspase-9, Caspase-3, and Bax” value was “significantly increased”; the “expression of N-cadherin, vimentin, snail, and BCL2” value is given as “decreased”.
